The values that follow come from PubChem BioAssay (NCI).

Each structure is given as a SMILES string.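 A five-concentration, 48-hour dose response in 96-well plates underlies each endpoint, interpolated linearly between surrounding concentrations. At the GI50, growth is halved. TGI: total growth inhibition.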 Bounds are passed on as bounds.

Assay in all cases: DTP human tumour cell line panel, 48 h
Assay [1] relates to SF-268 CNS.
Assay [2] relates to SF-539 CNS.
For assay [3], the system named is HCC-2998 colon.
Assay [4] relates to K-562 leukemia.
Assay [5] concerns HT29 colon.
Assay [6] relates to MALME-3M melanoma.
In assay [7] the test system is NCI-H460 lung.
Assay [8] concerns LOX IMVI melanoma.
Assay [9] relates to HL-60(TB) leukemia.
Assay [10] has as its system T-47D breast.

As to `COC(=O)C(=O)C(C(=O)C(=O)Nc1ccccc1C(N)=O)c1nc2ccc(C(=O)c3ccccc3)cc2[nH]c1=O` (stereo unspecified), the TGI in [1], in [2], in [3], in assay [4], in [5] and in [6] was over 100 µM throughout. The TGI in assay [7] was over 100 µM.

Regarding `O=C1c2cccc3cccc(c23)C(=O)N1CCCN1CCN(CCCN2C(=O)c3cccc4cccc(c34)C2=O)CC1`, the TGI in [2], in [8], in assay [3], in assay [4], in assay [5] and in [6] was over 100 µM each time. Besides, the TGI in assay [9] and in [7] was over 100 µM each time.

Consider `COc1cc(CC(=O)c2ccc3c(c2)OCO3)cc(OC)c1OC`, for which the TGI in assay [1], in assay [2], in assay [3], in assay [4], in assay [5] and in assay [6] was over 100 µM each time. Also, the TGI in assay [9] and in assay [7] was over 100 µM each time.

Take `Cn1c(COC(=O)NCCN2CCOCC2)nc2c(N3CCOCC3)nc(-c3ccccc3)nc21`: the GI50 in [1] is 1.38 µM; in [2] it was 1.35 µM; in assay [8], 0.256 µM; in assay [3], 1.62 µM; in assay [4], 0.523 µM; in [5] it was 0.35 µM. For the same molecule, the figures for the GI50 in [6], in assay [9] and in assay [7] were 1.56 µM, 0.521 µM and 1.25 µM, respectively. Besides, the TGI in assay [1] was 2.95 µM; in assay [2] it was 2.68 µM; in assay [8], 1.1 µM; in assay [3], 3.41 µM; in [4] it was over 100 µM; in assay [5] it was 1.66 µM. In addition, the TGI came out at 3.02 µM in assay [6], 4.03 µM in assay [9] and 2.77 µM in assay [7].

With `COc1ccc(-n2nc(C)c3c2N(C)C2(C)C[C@@H]4C3(C)[C@@H]3CC4(C2)N(C)c2c(c(C)nn2-c2ccc(OC)cc2)[C@H]3C)cc1` (stereo partly specified), the GI50 in assay [1] was 4.08 µM; in [2] it was 6.49 µM; in assay [3] it was 9.65 µM; in assay [5], 3.39 µM; in [10] it was 2.44 µM; in assay [6] it was 6.34 µM. Also, in [7], the GI50 is 3.69 µM. For the same molecule, the TGI is 70.2 µM in assay [1]; over 100 µM in assay [2]; over 100 µM in assay [3]; over 100 µM in [5]; 81.9 µM in assay [10]; over 100 µM in assay [6]. In addition, the TGI in [7] is over 100 µM.

`COC(=O)C1CCC(=NC2c3ccccc3-c3ccccc32)N1` (stereo unspecified): the TGI in assay [1], in assay [3], in assay [4], in assay [5], in assay [6] and in assay [9] was over 100 µM in each case. Further, in assay [7], the TGI is over 100 µM.

Regarding `O=C(OCc1nc2ccc(Br)cc2c(=O)n1-c1ccccc1)c1ccccc1O`, the total growth inhibition concentration (TGI) in assay [1], in assay [2], in assay [8], in assay [3], in [4] and in assay [5] was over 100 µM in each case. Besides, the TGI in [6], in assay [9] and in [7] was over 100 µM in each case.

With `Cc1cccc(CC(C)(C)C)c1NC(=O)C(=O)C(C(=O)c1ccc2ccccc2c1)C1OC(=O)c2ccccc21` (stereo unspecified), the TGI was 30.6 µM in [1]; 11.8 µM in assay [2]; 43.9 µM in assay [8]; 25.2 µM in assay [3]; 51.6 µM in [5]; 27.4 µM in assay [6]. The molecule further had a TGI in [7] of 17 µM.

Turning to `Cc1[nH]c(=O)nc(N/N=C/c2ccc(O)cc2)c1C(=O)Nc1ccc(Cl)cc1`, the TGI in assay [1], in [2], in [3], in [4], in assay [6] and in assay [9] was over 100 µM throughout. Also, in assay [7], the TGI was over 100 µM.

As for `Cc1c(-c2coc(-c3ccc(Cl)cc3)n2)c(=O)n(-c2ccccc2)n1C`, the TGI in [1], in [2], in [8], in assay [3], in assay [5] and in [6] was over 100 µM each time. The TGI in assay [9] and in [7] was over 100 µM each time.

With `COc1cc2c(c(OC)c1OC)-c1ccc(SC)c(=O)cc1[C@@H](NC(=O)c1ccc(C#N)cc1)CC2`, the TGI was over 48.7 µM in assay [1]; under 0.01 µM in [2]; 36.7 µM in assay [8]; under 0.01 µM in assay [3]; over 100 µM in assay [4]; under 0.01 µM in assay [5]. The TGI in assay [6] is 96.9 µM; in assay [7] it was under 0.01 µM.

As to `Fc1nc(F)nc(-c2c3ccccc3c3n2CCS3)n1`, the concentration for total growth inhibition (TGI) in [1], in [2], in [8], in assay [3], in [4] and in [5] was over 100 µM each time. Moreover, the TGI in [6], in assay [9] and in [7] was over 100 µM in each case.

For `CCOC(=O)NNC(=O)NC12CC3CC(CC(C3)C1)C2`, the TGI in assay [1], in [2], in [8], in [3], in assay [4] and in assay [5] was over 100 µM throughout. The total growth inhibition concentration (TGI) in assay [6] and in [7] was over 100 µM each time.

On to `O=C1c2ccccc2C(=O)c2c1ccc1c3ccccc3n(Cc3ccccc3)c21`, for which the TGI in [1], in [2], in [8], in assay [4], in assay [5] and in assay [6] was over 100 µM in each case. Also, the TGI in assay [9] and in assay [7] was over 100 µM in each case.
